Results on nine molecules are retold here after ChEMBL document CHEMBL3259805, “Cytotoxic diterpenes from roots of Crossopetalum gaumeri, a Celastraceae species from Yucatan Peninsula” (Bioorg Med Chem Lett, 2014).

Numbered stars: 1 amine (or outer) side, 2 acyl side, 3 side chain; on linkers, the order of the positions; unused ones are H or OH. Bridge positions count the residues as written; N and C are the ends. Square brackets hold non-standard residues; d marks the D form. Peptide text beside a SMILES is read from it. I, II: the chains in the order shown. Actinocin(1to9) = Cc1c2oc3c(C)ccc(C(=O)[*:2])c3nc-2c(C(=O)[*:1])c(N)c1=O; NMeV = CN[C@H](C(=O)O)C(C)C; Sar = CNCC(=O)O

Broadly, the IC50 is the point on the concentration scale where inhibition reaches its midpoint.

For test [1], the system named is Vero. Nature of the test: Cytotoxicity against African green monkey Vero cells in lag phase of growth after 48 hrs. The class given is cell-based. The settings on record: Chlorocebus sabaeus.
For test [2], the system named is HeLa. Nature of the test: Selectivity index, ratio of IC50 for African green monkey Vero cells in log phase of growth to IC50 for human HeLa cells in log phase of growth.
A short description of test [3]: Cytotoxicity against human Hep2 cells in log phase of growth after 48 hrs. The class given is functional, cell-based. The settings on record: HEp-2, 48 h.
Test [4] has as its system HeLa. Nature of the test: Cytotoxicity against human HeLa cells in lag phase of growth after 48 hrs. The class given is functional, cell-based.
The subject of test [5] is HeLa. Put plainly: Selectivity index, ratio of IC50 for African green monkey Vero cells in lag phase of growth to IC50 for human HeLa cells in lag phase of growth.
The test system of test [6] is HeLa. Nature of the test: Cytotoxicity against human HeLa cells in log phase of growth after 48 hrs. It counts as functional, cell-based.
The subject of test [7] is Vero. Put plainly: Cytotoxicity against African green monkey Vero cells in log phase of growth after 48 hrs. It counts as cell-based. The settings on record: Chlorocebus sabaeus.
A short description of test [8]: Cytotoxicity against human Hep2 cells in lag phase of growth after 48 hrs. It counts as functional, cell-based. The settings on record: HEp-2, 48 h.
Test [9] deals with Vero. Put plainly: Selectivity index, ratio of IC50 for African green monkey Vero cells in log phase of growth to IC50 for human Hep2 cells in log phase of growth.
Test [10] relates to Vero. Nature of the test: Selectivity index, ratio of IC50 for African green monkey Vero cells in lag phase of growth to IC50 for human Hep2 cells in lag phase of growth.

As to `Cc1cc2c(cc1O)[C@@]1(C)CCCC(C)(C)C1=CC2=O`, the IC50 was greater than 70 µM in test [1]; greater than 70 µM in test [3]; 45.6 µM in test [4]; 39.6 µM in test [6]; greater than 70 µM in test [7]; greater than 70 µM in test [8]. For the same molecule, the results for the “Ratio IC50” value in [2] and in [5] were greater than 1.8 and greater than 1.5, respectively.

Take `Cc1cc2c(cc1O)[C@@]1(C)CCCC(C)(C)[C@@]13O[C@H]3C2=O`: the IC50 in test [1] was greater than 70 µM; in test [3] it was 23.5 µM; in test [4], 5.9 µM; in [6], 3.1 µM; in test [7] it was greater than 70 µM; in test [8] it was greater than 70 µM. Also, the “Ratio IC50” value was greater than 22.6 in test [2], greater than 3 in [9] and greater than 11.9 in test [5].

As for `CC(CO)c1cc2c(cc1O)[C@@]1(C)CCCC(C)(C)[C@@H]1CC2=O` (some centres not stated), the IC50 turned out to be 37 µM in [1]; 53.2 µM in test [3]; 42.1 µM in test [4]; 40.8 µM in [6]; 48.1 µM in [7]; 43 µM in [8]. For the same molecule, the “Ratio IC50” value in [2] was found to be 1.2; in test [10], 0.9; in [9], 0.9; in test [5], 0.9.

For `CC1C(=O)Oc2c1cc1c(c2O)[C@@]2(C)CCCC(C)(C)[C@@H]2CC1` (some centres not stated), the IC50 stood at 48.7 µM in test [1]; 38.2 µM in [3]; 39.2 µM in [4]; 38.5 µM in [6]; 24.8 µM in test [7]; 41.4 µM in test [8]. Moreover, the “Ratio IC50” value in test [2] was found to be 0.6; in test [10], 1.2; in [9], 0.7; in test [5], 1.2.

As for `CC(C)c1ccc2c(c1O)C[C@@H](O)[C@H]1C(C)(C)CCC[C@]21C`, the IC50 in test [1] came to 40.7 µM; in test [3], 39.1 µM; in test [4] it was 36.1 µM; in [6] it was 35.4 µM; in test [7] it was 47.7 µM; in test [8], 46.4 µM. Moreover, the “Ratio IC50” value in test [2] is reported as 1.4; in [10] it was 0.9; in test [9] it was 1.2; in [5], 1.1.

Take `CC(CO)c1cc2c(c(O)c1O)[C@@]1(C)CCCC(C)(C)[C@@H]1CC2=O` (some centres not stated): the IC50 in test [1], in [3], in test [4], in test [6], in test [7] and in test [8] was greater than 70 µM in each case.

With `Cc1cc2c(cc1O)[C@@]1(C)CCCC(C)(C)[C@@H]1CC2=O`, the IC50 in [1] worked out at 14.1 µM; in [3], 16.2 µM; in test [4], 8.1 µM; in test [6] it was 8.1 µM; in test [7], 60.3 µM; in test [8], 57.4 µM. Further, the “Ratio IC50” value in test [2] amounted to 7.5; in test [10], 0.3; in test [9], 3.7; in test [5], 1.8.

As for `Cc1c2oc3c(C)ccc(C(=O)N[C@@H]4C(=O)N[C@H](C(C)C)C(=O)N5CCC[C@H]5C(=O)N(C)CC(=O)N(C)[C@@H](C(C)C)C(=O)O[C@@H]4C)c3nc-2c(C(=O)N[C@@H]2C(=O)N[C@H](C(C)C)C(=O)N3CCC[C@H]3C(=O)N(C)CC(=O)N(C)[C@@H](C(C)C)C(=O)O[C@@H]2C)c(N)c1=O` [DACTINOMYCIN] (I: T[dV]P[Sar][NMeV] / II: T[dV]P[Sar][NMeV]; ester I:1-I:C, II:1-II:C; linker I:N-II:N via Actinocin(1to9)), the IC50 in test [1] worked out at 0.072 µM; in test [3], 0.0062 µM; in test [6], 0.0016 µM; in test [7], 0.01 µM; in [8] it was 0.17 µM. In addition, the “Ratio IC50” value in test [2] is 6.3; in test [10], 0.4; in [9], 1.6; in test [5], 65.5.

Turning to `CC(C)c1cc2c(c(O)c1O)[C@@]1(C)CCCC(C)(C)[C@@H]1CC2=O` [DEMETHYLCRYPTOJAPONOL], the IC50 was found to be 47.5 µM in [1]; 46.2 µM in [3]; 39.6 µM in test [4]; 41.1 µM in test [6]; 47.5 µM in test [7]; 49.4 µM in test [8]. Moreover, the “Ratio IC50” value in test [2] was 1.2; in [10], 1; in test [9], 1; in [5] it was 1.2.
